# Measurements: patent US8545834B2, “G-substrate for the treatment and prevention of parkinson's disease” (The McLean Hospital Corporation, priority 2007, dated 2013)
# Tests used:
# Akt, GSK3β, ERK1/2, p38 = assay: Western blot of phosphorylation levels of PP2A targets in BE(2)-M17 cells; assay type: cell-based, human
# From the text: As described herein, G-substrate overexpression altered the phosphorylation levels of PP2A targets known to play critical roles in cell survival. Akt, GSK3β, and ERK1/2 are known to promote cell survival when phosphorylated (Song et al., J. Cell. Mol. Med. 9: 59-71, 2005; Chen et al., 2004; Ray et al., J. Biol. Chem. 280: 31091-31100, 2005; Tamura et al., FEBS Lett. 569: 249-255, 2004) and phosphorylated p38 is known to mediate cell death in dopaminergic neurons exposed to various toxins including 6-OHDA (Choi et al., J. Biol. Chem. 279: 20451-20460, 2004; Ruano et al., Neurosci. 140: 1157-1168, 2006; Ou et al., Proc. Natl. Acad. Sci. USA 103: 10923-10928, 2006). To test whether changes in phosphorylation levels of these proteins are G-substrate-dependent, both control and G-substrate-expressing cells were exposed to 50 μM 6-OHDA for various durations (t=0, 2, 5 and 10 hr). BE(2)-M17 cells were prepared and cultured as described above. The level of the total and phosphorylated forms of these PP2A substrates was detected by Western blot analysis (FIGS. 7A, 7C, 7E, and 7H).
# Cells and tissue samples were collected from and suspended in lysis buffer containing: 50 mM Tris-HCl, 0.15 M NaCl, 0.32 M sucrose, 1.0 mM EDTA, and 1% NP-40. In addition, phosphatase inhibitors I and II (1:100) and protease inhibitors (1:100) were added fresh prior to cell lysis (Sigma-Aldrich, P2850, P5276, and P8340 respectively). Following cell lysis, the homogenate was centrifuged, a portion of the supernatant was reserved for protein determination (BCA Assay, Pierce, Rockford, Ill.) and the remaining was stored at −20° C. 20 μg (in vitro cell preps) and 50 μg (tissue dissections) of solubilized protein were mixed 1:1 with sample buffer and boiled for 5 min. The samples and molecular weight standards were separated using the Criterion precast 10% SDS-polyacrylamide gel system (Bio-Rad, Hercules, Calif.). After electrophoresis, the proteins were electrically transferred to PVDF membranes at 100 V for 30 min. After transfer, blots were incubated in Tris-buffered saline with 0.1% Tween 20 (TBS-T) containing 5% BSA. Subsequently, blots were incubated with the following antibodies at 4° C. overnight (1:1000 unless otherwise stated): phospho-Akt (ser473), phospho-GSK3β (ser9), phospho-erk1/2, and phospho-p38 (Cell Signaling Technologies, Danvers, Mass.). HRP-conjugated secondary antibodies were then applied and immunoreactive bands were visualized with chemiluminescence (Amersham Biosciences, Arlington Heights, Ill.) and exposed onto film. Immunoblots were then stripped and re-probed for the expression of the total protein (Cell Signaling) and beta-actin (1:10 000) (Abcam) to serve as a loading control. Optical density analysis (NIH image) was used to determine the relative abundance of protein in each sample. The optical densities of the phospho epitopes were standardized to their respective total proteins and this value was used in the statistical analyses.
# Akt, GSK3β = assay: In vivo Akt and GSK3β phosphorylation, Western blot of substantia nigra and striata; parameters: species or system rat; settings: rats
# Procedure: The in vivo effect of G-substrate overexpression on Akt and GSK3β phosphorylation was investigated. Substantia nigra (FIG. 12R) and striata (FIG. 12T) of the control (empty vector) lentivirus and G-substrate injected were dissected and a Western blot analysis was performed.
# Animals were deeply anesthetized with an i.p. injection sodium pentobarbital and were sacrificed by exsanguination with the aid of ice-cold saline perfusion. For immunohistochemistry, the brains were then fixed with a 4% paraformaldehyde solution. The brains were then removed from the skull and placed in fresh 4% paraformaldehyde solution for 1 h, and equilibrated through 20% and 30% sucrose solutions and refrigerated until cutting for immunohistochemistry. For immunoblotting, brains injected with lenti-empty vector+lenti-eGFP (n=10) or lenti-G substrate+lenti-eGFP (n=10) were rapidly removed after saline perfusion and sliced coronally using a tissue chopper set to 1 mm (Campden Instruments Ltd., Lafayette, Ind.). On an inverted glass Petri dish over ice, regions of interest (striatum and substantia nigra region) were dissected from the individual 1 mm tissue slices, frozen on dry ice, and stored at −80° C.
# Cells and tissue samples were collected from and suspended in lysis buffer containing: 50 mM Tris-HCl, 0.15 M NaCl, 0.32 M sucrose, 1.0 mM EDTA, and 1% NP-40. In addition, phosphatase inhibitors I and II (1:100) and protease inhibitors (1:100) were added fresh prior to cell lysis (Sigma-Aldrich, P2850, P5276, and P8340 respectively). Following cell lysis, the homogenate was centrifuged, a portion of the supernatant was reserved for protein determination (BCA Assay, Pierce, Rockford, Ill.) and the remaining was stored at −20° C. 20 μg (in vitro cell preps) and 50 μg (tissue dissections) of solubilized protein were mixed 1:1 with sample buffer and boiled for 5 min. The samples and molecular weight standards were separated using the Criterion precast 10% SDS-polyacrylamide gel system (Bio-Rad, Hercules, Calif.). […]
# [1] = G-substrate versus control lentivirus
substance,measurement,setting,value
G-substrate: human wild type G-substrate (SEQ ID NO.: 1) overexpressed from a lentiviral vector,level of phosphorylated p38,"Akt, GSK3β, ERK1/2, p38; G-substrate overexpression, 50 μM 6-OHDA",did not alter
same,level of pAkt,"Akt, GSK3β, ERK1/2, p38; G-substrate overexpression, basal and 2, 5 and 10 hours after 50 μM 6-OHDA",significant increase
same,basal level of pGSK3β,"Akt, GSK3β, ERK1/2, p38; G-substrate-overexpressing cells, basal",increased
same,level of pErk2,"Akt, GSK3β, ERK1/2, p38; only at 10 hours following 50 μM 6-OHDA, no basal level increase",increased
same,level of pErk1,"Akt, GSK3β, ERK1/2, p38; similar trend as pErk2, 50 μM 6-OHDA",did not reach the statistical significance
same,pAkt levels,"Akt, GSK3β; substantia nigra and striata, compared to control lentivirus",1.38 fold
same,level of pGSK3β in the SN,"Akt, GSK3β; [1]",unchanged
same,level of pGSK3β in the striatum,"Akt, GSK3β; [1]",modestly but significantly higher
